# Laboratory results as given in article PMC2031891, “The cyclic nucleotide gated cation channel AtCNGC10 traffics from the ER via Golgi vesicles to the plasma membrane of Arabidopsis root and leaf cells” (BMC Plant Biology, 2007).
# Target: T1, AtCNGC10 (AtCNGC10-GFP) (Arabidopsis thaliana, UniProt Q9LNJ0)
# T1 construct: gene CNGC10; full-length cDNA fused to EGFP (pNC10kozG) or to EGFP and FLAG (pTGC10F), transiently expressed in HEK293
# T1 sequence (Q9LNJ0 1-711): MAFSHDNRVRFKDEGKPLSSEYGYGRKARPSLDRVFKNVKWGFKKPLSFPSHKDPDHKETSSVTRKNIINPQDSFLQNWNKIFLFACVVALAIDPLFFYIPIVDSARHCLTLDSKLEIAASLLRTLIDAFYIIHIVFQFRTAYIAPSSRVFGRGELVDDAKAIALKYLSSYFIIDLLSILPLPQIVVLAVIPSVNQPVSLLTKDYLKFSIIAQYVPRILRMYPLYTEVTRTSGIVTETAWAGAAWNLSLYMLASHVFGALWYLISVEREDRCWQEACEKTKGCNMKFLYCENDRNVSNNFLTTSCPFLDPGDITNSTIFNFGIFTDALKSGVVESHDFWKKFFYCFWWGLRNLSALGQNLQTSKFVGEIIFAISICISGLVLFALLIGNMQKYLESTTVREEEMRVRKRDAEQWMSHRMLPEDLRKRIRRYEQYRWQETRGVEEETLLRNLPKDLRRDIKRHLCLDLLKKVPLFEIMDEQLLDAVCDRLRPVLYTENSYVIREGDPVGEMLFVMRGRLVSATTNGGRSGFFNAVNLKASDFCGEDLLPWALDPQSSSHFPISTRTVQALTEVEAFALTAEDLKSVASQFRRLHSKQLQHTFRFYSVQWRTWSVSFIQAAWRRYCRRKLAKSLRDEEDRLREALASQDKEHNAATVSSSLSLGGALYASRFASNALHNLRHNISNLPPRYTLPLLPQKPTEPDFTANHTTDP
# Test: whole-cell patch clamp, HEK293
# Format: cell-based
# Details: 100 uM in bath; 145 mM K+ out / 145 mM N-methyl-D-glucamine in; pH 7.4 bath, 25 C; activator; control was non-transfected cells, no record without the nucleotide described
smiles,measurement,value
CCCC(=O)Nc1nc2c(ncn2[C@@H]2O[C@@H]3COP(=O)(O)O[C@H]3[C@H]2OC(=O)CCC)c(=O)[nH]1 [dibutyryl cGMP],"whole-cell patch clamp, HEK293",heterologously expressed AtCNGC10 conducted significant inward K^+ currents with the application of dibutyryl cGMP
